The data set can be described thus: High-throughput single time point substrate depletion microsomal stability assay. The class given is in vitro ADME. The note with it: Sprague-Dawley, control compounds, mean ± S.D across 600 plates, 0.5 mg/mL rat microsomal protein, 1.0 μM drug, NADPH regeneration system, pH 7.4, 37 °C, 15 min, t1/2 capped at 30 min. The procedure:
Microsomal stability of the test articles was determined in a high-throughput format using the substrate depletion method. […] Sprague-Dawley was chosen because it is the most common strain used in drug discovery. Experiments were performed using a Freedom Evo 200 automated platform with a 96-channel (MCA96) head with EVOware software (version 3.2) (Tecan Inc., Männedorf, Switzerland). The system also includes an Inheco heating block and cooling block (Inheco, Munich, Germany). […] The assay incubation system consisted of 0.5 mg/mL of rat microsomal protein, 1.0 μM drug concentration, and NADPH regeneration system (containing 0.650 mM NADP + , 1.65 mM glucose 6-phosphate, 1.65 mM MgCl2, and 0.2 unit/mL G6PDH) in 100 mM phosphate buffer at pH 7.4. The incubation was carried out at 37 °C for 15 min. The reaction was quenched by adding 555 μL of acetonitrile containing 0.28 μM albendazole, an internal standard. After a 20-min centrifugation at 3000 rpm at 4 °C, 30 μL of the supernatant was transferred to an analysis plate and was diluted fivefold using 1:2 v/v acetonitrile/water. […] The raw data set was preprocessed to generate training and test data for the purpose of building and validating prediction models. […] Detailed steps involved in preprocessing the raw data set are provided in the supplementary information (Table S1).

The structures appear in SMILES notation.

The half-life is how long it takes for the measured level to halve. High values mean slow decline, low ones rapid decline.

Where the note is “microsomes”, `Cc1cc(=O)n(-c2ccccc2)n1C` [Antipyrine, antipyrine] registered a half-life at 1 μM greater than 30 min.

In the case of `O=C1CC2(CCCC2)CC(=O)N1CCCCN1CCN(c2ncccn2)CC1` [Buspirone, buspirone], the half-life at 1 μM (rat liver microsomes) was determined as 3.8 ± 1.1 min.

For the compound `NC(=O)N1c2ccccc2C=Cc2ccccc21` [Carbamazepine, carbamazepine], the half-life at 1 μM (rat liver microsomes) is greater than 30 min.

As to `O=C(O)Cc1ccccc1Nc1c(Cl)cccc1Cl` [Diclofenac, diclofenac], the half-life at 1 μM (rat liver microsomes) is 11.4 ± 2.6 min.

In the case of `CC(C)NCC(O)COc1cccc2ccccc12` (centres unmarked) [Propranolol, propranolol], for the setting “rat liver microsomes”, the half-life at 1 μM is 1.4 ± 0.3 min.

These data come from publication PMC7693334, “Retrospective assessment of rat liver microsomal stability at NCATS: data and QSAR models” (Scientific Reports, 2020).
